# Patent publication US6673561B1, “Diagnostic test for thrombotic or thromboembolic disease” (Regents of the University of California, priority 1999, dated 2004)
# “Also recorded” adds a separate entry of the source.
# Key:
# [1] = system: FPB antiserum (R4097, bleed I3); assay: Competitive ELISA for specificity of the FPB antiserum (competitor in solution vs surface-bound synthetic human FPB); format: binding, rabbit; conditions: for cross-reactivity, defined as IC50 of FPB divided by IC50 of competitor times 100: FPB antiserum, competitive ELISA; for IC50: FPB antiserum 1:2500, competitive ELISA, read-out: IC50, competition for antibody binding to surface-bound synthetic human FPB; for competition / cross-reaction with FPB antiserum (in words): competitor in solution vs surface-bound synthetic human FPB
# Description: A competitive ELISA was developed to evaluate the specificity of the FPB antiserum. Unless otherwise noted, all steps were performed at room temperature, and the microplates were washed three times in between each step with 0.02 M NaH2PO4, 0.15 M NaCl, 1 mM EDTA, pH 7.4 (PNE) containing 0.1% tween-20. Microplate wells were first coated with synthetic human FPB ([…] in 0.2 M NaHCO3, […]) overnight at 4 C., and then “blocked” with 1% BSA in PNE (PNEA) for one hour. Meanwhile, serial dilutions of each competitor were prepared. The following competitors, all of human origin except where noted, were tested: native FPB (human and canine), synthetic FPB, synthetic des-arg FPB, synthetic fibrinopeptide A, and purified fibrinogen. […] of each competitor dilution were pre-incubated separately with […] of FPB antiserum (1:2500) in polypropylene microfuge tubes for 90 min. Dilutions of the competitors and of antiserum were prepared in dilution buffer (PNEA containing 0.1% tween-20). At the end of the pre-incubation period, 100 mL of each mixture were applied to duplicate FPB-coated wells and incubated for 90 min. After washing, 100 mL of peroxidase-conjugated goat anti-rabbit IgG detecting antibody (1:5000 in dilution buffer) were added to each well and incubated for one hour. After a final wash, each well was developed with 100 ml of OPD substrate solution for exactly five minutes. The reaction was stopped by addition of an equal volume of 3 N H2SO4, and the absorbance (490 nm) of each well was measured in the microplate reader.
# A competitive ELISA was developed for determination of the FPB concentration in plasma and urine ultrafiltrates. Unless otherwise noted, all steps were performed at room temperature, and the microplates were washed three times in between each step with 0.02 M NaH2PO4, 0.15 M NaCl, 1 mM EDTA, pH 7.4 (PNE) containing 0.1% tween-20. Microplate wells were first coated with synthetic FPB (2 μg/ml in 0.2 M NaHCO3, 100 μl/well) overnight at 4 C., and then “blocked” with 1% BSA in PNE (PNEA) for one hour. Meanwhile, 20 μl of ultrafiltered samples and synthetic FPB standards (1.56-100 ng/ml) were pre-incubated separately with 200 μl of FPB antiserum (1:2500) in polypropylene microfuge tubes for one hour. Dilutions of the FPB standard and antiserum were prepared in dilution buffer (PNEA containing 0.1% tween-20). At the end of the pre-incubation period, 100 μl of each mixture were applied to duplicate FPB-coated wells and incubated for one hour. After washing, 100 μl of peroxidase-conjugated goat anti-rabbit IgG detecting antibody (1:5000 in dilution buffer) were added to each well and incubated for one hour. After a final wash, each well was developed with 100 μl of OPD substrate solution for exactly five minutes. The reaction was stopped by addition of an equal volume of 3 N H2SO4, and the absorbance (490 nm) of each well was measured in a microplate reader. The concentration of FPB in the samples was interpolated from a standard curve obtained by plotting the FPB concentration of each standard versus the corresponding absorbance. If sample values exceeded the upper limit of the standard curve, those samples were re-tested after appropriate dilution with dilution buffer. The intra- and inter-assay coefficients of variation for the FPB assay were 14.1% and 5.0%, respectively. The competitive ELISA was also used to assess the cross-reactivity of the FPB antiserum with human fibrinogen, fibrinopeptide A (FPA), des-arg FPB, and canine FPB.
# [2] = system: femoral vein thrombi / pulmonary emboli; assay: Canine fibrinogen-replacement thrombosis and pulmonary embolism model, FPB in plasma and urine (Example 3); format: in vivo, dog; conditions: n=3
# Description: A competitive ELISA was developed for determination of the FPB concentration in plasma and urine ultrafiltrates. Unless otherwise noted, all steps were performed at room temperature, and the microplates were washed three times in between each step with 0.02 M NaH2PO4, 0.15 M NaCl, 1 mM EDTA, pH 7.4 (PNE) containing 0.1% tween-20. Microplate wells were first coated with synthetic FPB (2 μg/ml in 0.2 M NaHCO3, 100 μl/well) overnight at 4 C., and then “blocked” with 1% BSA in PNE (PNEA) for one hour. Meanwhile, 20 μl of ultrafiltered samples and synthetic FPB standards (1.56-100 ng/ml) were pre-incubated separately with 200 μl of FPB antiserum (1:2500) in polypropylene microfuge tubes for one hour. Dilutions of the FPB standard and antiserum were prepared in dilution buffer (PNEA containing 0.1% tween-20). At the end of the pre-incubation period, 100 μl of each mixture were applied to duplicate FPB-coated wells and incubated for one hour. […] The reaction was stopped by addition of an equal volume of 3 N H2SO4, and the absorbance (490 nm) of each well was measured in a microplate reader. The concentration of FPB in the samples was interpolated from a standard curve obtained by plotting the FPB concentration of each standard versus the corresponding absorbance. […]
# [3] = system: experimentally induced thrombi; assay: Canine experimental thrombosis model, FPBtot in plasma and urine (Example 2); format: in vivo, dog; conditions: heparin bolus 300 units/kg, infusion 90 units/kg/hr after embolization, three dogs
# Source text: Adult mongrel dogs were anesthetized and their native fibrinogen depleted. After the ancrod has been eliminated from the circulation, during a time when the native fibrinogen activity is minimal, experimental thrombi are induced as previously described (Morris et al. 1997b). The dogs are anesthetized with halothane, intubated and mechanically ventilated to maintain arterial blood gases within normal limits. […] After this, they were transfused with 6 grams of purified human fibrinogen in normal saline to achieve a fibrinogen level of at least 300 mg/dl. Under these conditions, fibrinogen levels were maintained at >200 mg/dl throughout the study period.
# Double balloon catheters were advanced via hind-leg saphenous veins to the femoral veins on each side. The balloons were then inflated, creating a 5 ml sealed chamber within the veins. […]
# Blood and urine samples were collected into titrated tubes (containing protease inhibitors) at baseline, after defibrinogenation, at regular intervals after thrombus induction, and after anticoagulation. […] All samples were stored at […] until analyzed. FPBtot levels in urine and ultrafiltrated plasma are determined by immunoassay as described above.
# The means and standard deviations of the FPBtot levels, as determined by immunoassay, associated with each time point are calculated. […]
# [4] = Urinary FPBtot before and during anticoagulation in VTE patients (Example 6); format: in vivo, human
# Source text: Consecutive patients referred to the VTE service in whom the diagnosis of DVT and/or PE is confirmed (based on the criteria described above) are enrolled. Prior to therapy, blood and urine samples are collected for measurement of FPBtot (and other FPB measurements described above). Patients are then be treated with intravenous heparin (80 units/kg bolus, 18 units/kg/hr infusion), with the dose adjusted per protocol to keep aPTT 1.5-2.5 times the control values. As soon as steady-state “therapeutic doses” of heparin are maintained, blood and urine are collected again and the same parameters are measured. In addition, plasma aPTT, anti-Xa and anti-thrombin measurements are made as previously described (Morris et al. 1998).
# For each patient, the difference between urinary and plasma FPBtot levels, measured before and after anticoagulation, is recorded. The mean reduction in FPBtot levels after anticoagulation is calculated. The required sample size is estimated based on the preliminary data described below: The mean (+/−SD) decrease in urinary FPBtot during anticoagulation was 60 ng/ml (+/−85.7 ng/ml). Assuming similar standard deviations for the VTE patients to be studied, thirty-seven pairs of samples are required in order to detect a 50% decrease in the levels after anticoagulation, with an alpha of 0.01 and a power of 95%.
substance,measurement,setting,value
FPA: short amino acid sequence at the amino terminus of the alpha chain of fibrinogen (ADSGEGDFLAEGGGVR),"cross-reactivity, defined as IC50 of FPB divided by IC50 of competitor times 100",[1],< 0.1%
"QGVNDNEEGFFSA [des-arg FPB, degradation product formed as FPB is exposed to carboxypeptidases in normal plasma]",IC50,[1],8.9 nM
same,"cross-reactivity, defined as IC50 of FPB divided by IC50 of competitor times 100",[1],75%
"fibrinogen: purified human fibrinogen, used as ELISA competitor and for transfusion of dogs",IC50,[1],2.3 nM
same,competition / cross-reaction with FPB antiserum (in words),[1],significant cross-reaction; also recorded: significant cross-reactivity
"QGVNDNEEGFFSAR [FPB, human fibrinopeptide B, cleaved by thrombin from the beta-chains of fibrin I]",IC50,[1],6.7 nM
"native canine FPB: FPB derived from purified canine fibrinogen clotted with thrombin, ultrafiltrate (HYYDDTDEEERIVSTVDAR)",competition / cross-reaction with FPB antiserum (in words),[1],did not compete
"native human FPB: FPB derived from purified human fibrinogen clotted with thrombin, ultrafiltrate (QGVNDNEEGFFSAR)",competition / cross-reaction with FPB antiserum (in words),[1],effective competitive inhibitor
heparin,rise in plasma FPB following embolization,"[2]; heparin iv 300 units/kg bolus, 90 units/kg/hr, one hour prior to embolization",completely suppressed
same,initial peak of total urinary FPB,[2]; heparin iv one hour prior to embolization,suppressed
same,thrombosis after excess heparin,[3],thrombosis is halted
same,urinary levels of FPB during anticoagulation (in words),[4]; all but one patient,significantly decreased
same,mean decrease in urinary FPBtot during anticoagulation,"[4]; preliminary data, mean (+/-SD)",60 ng/mL
